Measurements reported in ChEMBL document CHEMBL1146876, “Structurally diverse 5-substituted pyrimidine nucleosides as inhibitors of Leishmania donovani promastigotes in vitro” (Bioorg Med Chem Lett, 2006).

tested on: Leishmania donovani; assay: Antileishmanial activity against Leishmania donovani LV9 promastigotes by MTT method; type: functional, organism-based

Row | Compound | IC50 [µM]
1 | CC(=O)OC[C@H]1O[C@@H](n2cc(C3C(C#N)=C(N)OC4=C3C(=O)CC(c3ccc(F)cc3)C4)c(=O)[nH]c2=O)C[C@@H]1OC(C)=O (some centres undefined) | 95.3
2 | N#CC1=C(N)Oc2cc3ccccc3c(O)c2C1c1cn([C@H]2C[C@H](O)[C@@H](CO)O2)c(=O)[nH]c1=O (some centres undefined) | > 100
3 | CC(=O)OC[C@H]1O[C@@H](n2cc(C3C(C#N)=C(N)OC4=C3C(=O)CC(c3ccccc3)C4)c(=O)[nH]c2=O)C[C@@H]1OC(C)=O (some centres undefined) | 85.9
4 | N#CC(C#N)=Cc1cn([C@H]2C[C@H](O)[C@@H](CO)O2)c(=O)[nH]c1=O | 1.5
5 | CC(=O)OC[C@H]1O[C@@H](n2cc(C=O)c(=O)[nH]c2=O)C[C@@H]1OC(C)=O | > 100
6 | CC(=O)OC[C@H]1O[C@@H](n2cc(C=C(C#N)C#N)c(=O)[nH]c2=O)C[C@@H]1OC(C)=O | 30.1
7 | CC(=O)OC[C@H]1O[C@@H](n2cc(/C=C/C#N)c(=O)[nH]c2=O)C[C@@H]1OC(C)=O | > 100
8 | N#C/C=C/c1cn([C@H]2C[C@H](O)[C@@H](CO)O2)c(=O)[nH]c1=O | 92
9 | COC(=O)/C(C#N)=C/c1cn([C@H]2C[C@H](O)[C@@H](CO)O2)c(=O)[nH]c1=O | 7.3
10 | N#CC1=C(N)OC2=C(C(=O)CCC2)C1c1cn([C@H]2C[C@H](O)[C@@H](CO)O2)c(=O)[nH]c1=O (some centres undefined) | 1.4
11 | CCOC(=O)C1=C(N)OC2=C(C(=O)CC(C)(C)C2)C1c1cn([C@H]2C[C@H](O)[C@@H](CO)O2)c(=O)[nH]c1=O (some centres undefined) | 7.2
12 | CC(=O)OC[C@H]1O[C@@H](n2cc(C3C(C#N)=C(N)Oc4cc5ccccc5c(O)c43)c(=O)[nH]c2=O)C[C@@H]1OC(C)=O (some centres undefined) | > 100
13 | CC(=O)OC[C@H]1O[C@@H](n2cc(C3C(C#N)=C(N)OC4=C3C(=O)CCC4)c(=O)[nH]c2=O)C[C@@H]1OC(C)=O (some centres undefined) | 68.7
14 | CC(=O)OC[C@H]1O[C@@H](n2cc(C3C(C#N)=C(N)OC4=C3C(=O)CC(c3ccc(Cl)cc3)C4)c(=O)[nH]c2=O)C[C@@H]1OC(C)=O (some centres undefined) | 80.2
15 | CC1(C)CC(=O)C2=C(C1)OC(N)=C(C#N)C2c1cn([C@H]2C[C@H](O)[C@@H](CO)O2)c(=O)[nH]c1=O (some centres undefined) | > 100
16 | CC1=NN(c2ccccc2)C(=O)/C1=C(\C)c1cn([C@H]2C[C@H](O)[C@@H](CO)O2)c(=O)[nH]c1=O | 3
17 | CC(=O)OC[C@@H]1O[C@H](n2cc(C3C(C#N)=C(N)OC4CC(c5ccc(N(C)C)cc5)CC(=O)C43)c(=O)[nH]c2=O)C[C@H]1OC(C)=O (some centres undefined) | 100

Row | Compound | IC50 [µM]
18 | CN(C)c1ccc(C2CC(=O)C3C(C2)OC(N)=C(C#N)C3c2cn([C@@H]3C[C@@H](O)[C@H](CO)O3)c(=O)[nH]c2=O)cc1 (some centres undefined) | 6.2
19 | N#Cc1cn([C@H]2C[C@H](O)[C@@H](CO)O2)c(=O)[nH]c1=O | > 100
20 | CCOC(=O)/C(C#N)=C/c1cn([C@H]2C[C@H](OC(C)=O)[C@@H](COC(C)=O)O2)c(=O)[nH]c1=O | 39.1
21 | CN(C)c1ccc2c(c1)OC(N)=C(C#N)C2c1cn([C@H]2C[C@H](O)[C@@H](CO)O2)c(=O)[nH]c1=O (some centres undefined) | > 100
22 | O=Cc1cn([C@H]2C[C@H](O)[C@@H](CO)O2)c(=O)[nH]c1=O | 0.9
23 | CCOC(=O)C1=C(N)OC2=C(C(=O)CC(C)(C)C2)C1c1cn([C@H]2C[C@H](OC(C)=O)[C@@H](COC(C)=O)O2)c(=O)[nH]c1=O (some centres undefined) | > 100
24 | CC1CC(=O)C2=C(C1)OC(N)=C(C#N)C2c1cn([C@H]2C[C@H](O)[C@@H](CO)O2)c(=O)[nH]c1=O (some centres undefined) | 9.4
25 | N#CC1=C(N)OC2=C(C(=O)CC(c3ccc(Cl)cc3)C2)C1c1cn([C@H]2C[C@H](O)[C@@H](CO)O2)c(=O)[nH]c1=O (some centres undefined) | > 100
26 | CCOC(=O)C1=C(N)OC2=C(C(=O)CCC2)C1c1cn([C@H]2C[C@H](O)[C@@H](CO)O2)c(=O)[nH]c1=O (some centres undefined) | 10.5
27 | N#CC1=C(N)OC2=C(C(=O)CC(c3ccc(F)cc3)C2)C1c1cn([C@H]2C[C@H](O)[C@@H](CO)O2)c(=O)[nH]c1=O (some centres undefined) | 8.4
28 | CC(=O)OC[C@H]1O[C@@H](n2cc(C3C(C#N)=C(N)OC4=C3C(=O)CC(C)C4)c(=O)[nH]c2=O)C[C@@H]1OC(C)=O (some centres undefined) | > 100
29 | CC(=O)OC[C@H]1O[C@@H](n2cc(C3C(C#N)=C(N)OC4=C3C(=O)CC(C)(C)C4)c(=O)[nH]c2=O)C[C@@H]1OC(C)=O (some centres undefined) | 80.4
30 | CC(=O)OC[C@H]1O[C@@H](n2cc(/C=C\C#N)c(=O)[nH]c2=O)C[C@@H]1OC(C)=O | > 100
31 | CCOC(=O)/C(C#N)=C/c1cn([C@H]2C[C@H](O)[C@@H](CO)O2)c(=O)[nH]c1=O | 1.9
32 | C[C@@H]1[C@H](O)[C@@H](C)/C=C/C=C/C=C/C=C/C=C/C=C/C=C/[C@H](O[C@@H]2O[C@H](C)[C@@H](O)[C@H](N)[C@@H]2O)C[C@@H]2O[C@](O)(C[C@@H](O)C[C@@H](O)[C@H](O)CC[C@@H](O)C[C@@H](O)CC(=O)O[C@H]1C)C[C@H](O)[C@H]2C(=O)O [AMPHOTERICIN B] | 0.1
33 | N=C(N)c1ccc(OCCCCCOc2ccc(C(=N)N)cc2)cc1 [PENTAMIDINE] | 6.6
34 | Cc1cn([C@H]2C[C@H](N=[N+]=[N-])[C@@H](CO)O2)c(=O)[nH]c1=O [ZIDOVUDINE] | 3.4
